{"source": "patent US4424222A", "about": "“Pyridobenzodiazepinones, pharmaceutical compositions and method of use thereof” (Karl Thomae GmbH, priority 1982, dated 1984)", "key": {"[1]": {"target": "muscarinic receptors (smooth muscle of the fundus of the stomach)", "experiment": "Receptor binding test (3H-N-methylscopolamine displacement), smooth muscle fundus of stomach", "parameters": "species or system Sprague-Dawley rats", "conditions": "0.3 n molar 3H-NMS, 30° C., 45 minutes, read-out: Receptor binding tests IC50, Smooth muscle fundus of stomach", "method": "(§1) The organ donors were male Sprague-Dawley rats with a body weight of from 180 to 200 g. After the heart, stomach and cerebral cortex had been removed, the remainder of the operation was carried out in ice-cold Hepes-HCl buffer (pH 7.4; 100 m molar NaCl, 10 m molar MgCl2). The smooth muscle of the fundus of the stomach was separated from the mucous membrane of the stomach and subjected to preliminary homogenization. The whole heart was cut up with scissors. All the organs were then homogenized in a Potter apparatus.\n(§2) For the binding test, the homogenized organs were diluted as follows:\nSmooth muscle of the fundus of the stomach: 1:100\n(§3) The homogenized organ preparations were incubated at a specific concentration of a radio labeled compound and with a series of concentrations of the non-radioactive test substances in an Eppendorf centrifuge tube at 30° C. Then duration of incubation was 45 minutes. 0.3 n molar ^3 H-N-methylscopolamine (^3 H-NMS) was used as the radio labeled compound. After incubation had been brought to an end by centrifuging at 14 000 g, the radioactivity in the pellet was determined. It represents the sum of the specific and non-specific binding of ^3 H-NMS. The proportion of non-specific binding was defined as the radioactivity which was bound in the presence of 1μ molar quinuclidinylbenzylate. Four measurements were taken in each case. The IC50 values of the non-labelled test substances were determined graphically. They represent the concentration of test substance at which the specific binding of ^3 H-NMS to the muscarinic receptors in the various organs was inhibited by 50%."}, "[2]": {"experiment": "Oxotremorine test: inhibition of salivation", "parameters": "species or system albino rats (Crl:COBS-CD (SD) BR strain)", "conditions": "in vivo, iv; rat, i.v. 15 minutes before oxotremorine 0.083 mg/kg i.v.; double blind", "method": "(§4) Oxotremorine, a specific agonist for muscarinic receptors, produces lesions in the mucous membrane of the stomach in rats and increases their secretion of saliva. This test method was chosen so that any selective activity of an antimuscarinic substance on the stomach could be identified.\n(§5) 10 female albino rats (of the Crl:COBS-CD (SD) BR strain) with a body weight of from 120 to 150 g were used in each treatment group and were kept without food for 24 hours before the start of the test but given free access to drinking water.\n(§6) In order to determine, in preliminary tests, the muscarinic effect of oxotremorine on each of the symptoms studied, a dosage/activity curve was drawn up with at least three dosages for each symptom.\n(§7) When testing the antimuscarinic substances, the dosage of oxotremorine which triggered the symptom in question in 90 to 100% of the animals in the preliminary tests was used.\nSecretion of saliva: 0.083 mg/kg i.v.\n(§8) Each antimuscarinic substance was administered intravenously in uniformly graduated doses 15 minutes before the oxotremorine was administered. Control groups were given corresponding quantities of the solvent and suspending agent without the test substance.\n(§9) Immediately after the oxotremorine was administered, the animals were placed in a glass case for 15 minutes and observed.\n(§10) The ED50 values were determined using the method described by LITCHFIELD and WILCOXON (J. Pharmacol. Exp. Ther. 96, 99, 1949)."}, "[3]": {"target": "muscarinic receptors (cerebral cortex)", "experiment": "Receptor binding test (3H-N-methylscopolamine displacement), cerebral cortex", "parameters": "species or system Sprague-Dawley rats", "conditions": "0.3 n molar 3H-NMS, 30° C., 45 minutes, read-out: Receptor binding tests IC50, Cortex", "method": "as §1, §2, §3"}, "[4]": {"system": "muscarinic receptors (oxotremorine-induced lesions of the gastric mucous membrane)", "experiment": "Oxotremorine test: anti-ulcerative effect (lesions in mucous membrane of stomach)", "format": "in vivo, albino rats (Crl:COBS-CD (SD) BR strain)", "conditions": "iv; rat, i.v. 15 minutes before oxotremorine 0.62 mg/kg i.v.; neostigmine 1 mg/kg oral", "method": "as §4, §5, §6, §7\nLesions in mucous membrane of stomach: 0.62 mg/kg i.v.\nas §8, §9, §10\nThe effects on lesions of the mucous membrane of the stomach were evaluated as follows:\nThe lesions of the gastric mucous membrane were produced by intravenous injection of 0.62 mg/kg of oxotremorine 30 minutes after the oral administration of 1 mg/kg of neostigmine (a cholinesterase inhibitor). 60 minutes after the administration of the neostigmine, the animals were killed, the stomachs were removed and opened and examined for the presence of any lesions in the mucous membrane. The protective effect of the test substances was expressed as the percentabge inhibition (percentage of animals without lesions). The ED50 and ED70 values were determined using the method of LITCHFIELD AND WILCOXON (see above)."}, "[5]": {"experiment": "Mydriasis (effect on pupil size)", "parameters": "species or system rats", "conditions": "in vivo, iv; rat, pupil size observed for 10 minutes; double blind", "method": "The effect of the test substances on the pupil size in rats was investigated as follows:\nThe substances were administered intravenously to groups of 10 animals in at least three uniformly graduated doses. […] The percentage of test animals in which mydriasis occurred was determined. The ED50 values were again determined using the method of LITCHFIELD and WILCOXON (see above)."}, "[6]": {"target": "T1, muscarinic receptors (whole heart) (Rattus norvegicus, UniProt P10980)", "T1 construct": "All the organs were then homogenized in a Potter apparatus; from tissue; host or cells: whole heart homogenate of male Sprague-Dawley rats", "T1 sequence (P10980 1-466)": "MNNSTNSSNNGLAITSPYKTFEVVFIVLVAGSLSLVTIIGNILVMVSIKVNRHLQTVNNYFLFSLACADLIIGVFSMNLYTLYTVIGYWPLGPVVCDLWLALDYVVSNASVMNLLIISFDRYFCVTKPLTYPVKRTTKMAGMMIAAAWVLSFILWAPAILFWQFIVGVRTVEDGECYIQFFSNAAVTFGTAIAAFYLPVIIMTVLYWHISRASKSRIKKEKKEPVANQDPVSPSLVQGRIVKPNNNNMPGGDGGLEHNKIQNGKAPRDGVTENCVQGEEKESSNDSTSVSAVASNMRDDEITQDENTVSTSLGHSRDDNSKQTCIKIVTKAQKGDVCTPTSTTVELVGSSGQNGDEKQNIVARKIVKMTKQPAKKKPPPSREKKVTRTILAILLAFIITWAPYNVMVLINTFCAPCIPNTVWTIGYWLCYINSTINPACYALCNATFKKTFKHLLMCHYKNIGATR", "experiment": "Receptor binding test (3H-N-methylscopolamine displacement), heart", "parameters": "species or system Sprague-Dawley rats", "conditions": "0.3 n molar 3H-NMS, 30° C., 45 minutes, read-out: Receptor binding tests IC50, Heart", "method": "as §1, §2\nas §3, with “They represent the concentration of test substance at which the specific binding of ^3 H-NMS to the muscarinic receptors in the various organs was inhibited by 50%.” left out"}, "[7]": {"experiment": "Water solubility of the base (remark)", "format": "physicochemical", "conditions": "free base"}}}
{"molecule": "CN1CCC(OC(=O)N2c3ccccc3C(=O)Nc3cccnc32)CC1", "note": "[A, 5,11-dihydro-11-[[(1-methyl-4-piperidinyl)oxy]carbonyl]-6H-pyrido[2,3,-b][1,4]benzodiazepin-6-one]", "values": [{"measurement": "IC50", "setting": "[1]", "result": "~900", "unit": "nM"}, {"measurement": "ED50 at 0.25 h", "setting": "[2]", "result": 0.85, "unit": "mg/kg"}, {"measurement": "IC50", "setting": "[3]", "result": 100, "unit": "nM"}, {"measurement": "ED50", "setting": "[4]", "result": 0.01, "unit": "mg/kg"}, {"measurement": "ED70", "setting": "[4]", "result": 0.03, "unit": "mg/kg"}, {"measurement": "ED50 at 10 min", "setting": "[5]", "result": 0.13, "unit": "mg/kg"}, {"measurement": "IC50", "setting": "[6]", "result": 500, "unit": "nM"}]}
{"molecule": "CN1CCC(NC(=O)N2c3ccccc3C(=O)Nc3cccnc32)CC1", "note": "[B, 5,11-dihydro-11-[[(1-methyl-4-piperidinyl)amino]carbonyl]-6H-pyrido[2,3-b][1,4]benzodiazepin-6-one]", "values": [{"measurement": "IC50", "setting": "[1]", "result": 1200, "unit": "nM"}, {"measurement": "ED50 at 0.25 h", "setting": "[2]", "result": 0.42, "unit": "mg/kg"}, {"measurement": "IC50", "setting": "[3]", "result": 200, "unit": "nM"}, {"measurement": "ED50", "setting": "[4]", "result": 0.0068, "unit": "mg/kg"}, {"measurement": "ED70", "setting": "[4]", "result": 0.019, "unit": "mg/kg"}, {"measurement": "ED50 at 10 min", "setting": "[5]", "result": 0.139, "unit": "mg/kg"}]}
{"molecule": "CN1CCN(NC(=O)N2c3ccccc3C(=O)Nc3cccnc32)CC1", "note": "[C]", "values": [{"measurement": "IC50", "setting": "[1]", "result": 900, "unit": "nM"}, {"measurement": "ED50 at 0.25 h", "setting": "[2]", "result": 0.056, "unit": "mg/kg"}, {"measurement": "IC50", "setting": "[3]", "result": 60, "unit": "nM"}, {"measurement": "ED50", "setting": "[4]", "result": 0.0033, "unit": "mg/kg"}, {"measurement": "ED70", "setting": "[4]", "result": 0.0052, "unit": "mg/kg"}, {"measurement": "ED50 at 10 min", "setting": "[5]", "result": 0.07, "unit": "mg/kg"}, {"measurement": "water solubility (in words)", "setting": "[7]", "result": "watersoluble"}]}
